{
  "source": "EPA's ToxRefDB 2",
  "key": {"rat [1]": {"tested_on": "rat", "details": "Combined chronic toxicity/carcinogenicity, sprague dawley, Oral, Feed, dose end: 24 month, group: systemic"}, "rat [2]": {"tested_on": "rat", "details": "Subchronic oral toxicity in rodents, sprague dawley, Feed, dose end: 90 day"}, "rat [3]": {"tested_on": "rat", "details": "Prenatal developmental toxicity study, sprague dawley, Oral, Gavage/Intubation, dose end: 15 GD"}, "dog": {"tested_on": "dog", "details": "Chronic toxicity, beagle, Oral, Capsule, dose end: 107 week, group: systemic"}, "rat [4]": {"tested_on": "rat", "details": "Multigenerational reproductive toxicity study, wistar, Oral, Feed, dose end: 2 generation"}, "mouse": {"tested_on": "mouse", "details": "Carcinogenicity, cd1, Oral, Feed, dose end: 104 week, group: systemic"}, "[5]": {"details": "systemic / pathology microscopic / thyroid gland / hyperplasia + systemic / pathology microscopic / thyroid gland / hypertrophy + systemic…"}, "[6]": {"details": "group: cholinesterase, cholinesterase / cholinesterase / cholinesterase / plasma cholinesterase (che)"}, "[7]": {"details": "group: systemic, systemic / organ weight / thyroid gland / relative to body weight + systemic / pathology microscopic / kidney / eosinophilic focus + …"}, "[8]": {"details": "group: systemic, systemic / pathology microscopic / kidney / eosinophilic focus + systemic / pathology microscopic / kidney / hyaline droplet"}, "[9]": {"details": "group: developmental, developmental / developmental malformation / bone / incomplete ossification + systemic / in life observation / body weight / fetal weight + …"}, "[10]": {"details": "group: maternal, reproductive / reproductive performance / fertility / fertility + reproductive / reproductive performance / resorptions / resorptions + …"}, "[11]": {"details": "systemic / organ weight / liver / relative to body weight"}, "[12]": {"details": "systemic / organ weight / liver / relative to body weight + systemic / clinical chemistry / alkaline phosphatase (alp/alk) / alkaline …"}, "[13]": {"details": "group: offspring, systemic / in life observation / body weight / offspring (pup) weight gain"}, "[14]": {"details": "group: parental, systemic / in life observation / body weight / body weight gain"}, "[15]": {"details": "systemic / organ weight / liver / absolute + systemic / organ weight / adrenal gland / absolute + systemic / organ weight / adrenal gland / …"}},
  "data": [
    {"smiles": "CC(C)N1C(=O)N(c2ccccc2)CSC1=NC(C)(C)C", "note": "[Buprofezin]", "values": [
      {"measurement": "LOAEL", "setting": "rat [1]; systemic / pathology microscopic / thyroid gland / hyperplasia + systemic / pathology microscopic / thyroid gland / hypertrophy", "result": 8.7, "unit": "mg/kg/day"},
      {"measurement": "LEL", "setting": "rat [1]; [5]", "result": 8.7, "unit": "mg/kg/day"},
      {"measurement": "NEL", "setting": "rat [1]; [5]", "result": 0.9, "unit": "mg/kg/day"},
      {"measurement": "NOAEL", "setting": "rat [1]; [5]", "result": 0.9, "unit": "mg/kg/day"},
      {"measurement": "LEL", "setting": "rat [2]; [6]", "result": 362, "unit": "mg/kg/day"},
      {"measurement": "LOAEL", "setting": "rat [2]; [6]", "result": "> 362", "unit": "mg/kg/day"},
      {"measurement": "NEL", "setting": "rat [2]; [6]", "result": 81.8, "unit": "mg/kg/day"},
      {"measurement": "NOAEL", "setting": "rat [2]; [6]", "result": "≥ 362", "unit": "mg/kg/day"},
      {"measurement": "LOAEL", "setting": "rat [2]; [7]", "result": 68.6, "unit": "mg/kg/day"},
      {"measurement": "NOAEL", "setting": "rat [2]; [7]", "result": 13, "unit": "mg/kg/day"},
      {"measurement": "LEL", "setting": "rat [2]; [8]", "result": 3.4, "unit": "mg/kg/day"},
      {"measurement": "NEL", "setting": "rat [2]; [8]", "result": "< 3.4", "unit": "mg/kg/day"},
      {"measurement": "LEL", "setting": "rat [3]; group: developmental, developmental / developmental malformation / bone / incomplete ossification + developmental / developmental malformation / bone / unossified", "result": 200, "unit": "mg/kg/day"},
      {"measurement": "LOAEL", "setting": "rat [3]; [9]", "result": 800, "unit": "mg/kg/day"},
      {"measurement": "NEL", "setting": "rat [3]; [9]", "result": 50, "unit": "mg/kg/day"},
      {"measurement": "NOAEL", "setting": "rat [3]; [9]", "result": 200, "unit": "mg/kg/day"},
      {"measurement": "LOAEL", "setting": "rat [3]; [10]", "result": 800, "unit": "mg/kg/day"},
      {"measurement": "NEL", "setting": "rat [3]; [10]", "result": 50, "unit": "mg/kg/day"},
      {"measurement": "NOAEL", "setting": "rat [3]; [10]", "result": 200, "unit": "mg/kg/day"},
      {"measurement": "LEL", "setting": "rat [3]; group: maternal, systemic / in life observation / water consumption / water consumption", "result": 200, "unit": "mg/kg/day"},
      {"measurement": "LEL", "setting": "dog; [11]", "result": 2, "unit": "mg/kg/day"},
      {"measurement": "NEL", "setting": "dog; [11]", "result": "< 2", "unit": "mg/kg/day"},
      {"measurement": "LOAEL", "setting": "dog; [12]", "result": 20, "unit": "mg/kg/day"},
      {"measurement": "NOAEL", "setting": "dog; [12]", "result": 2, "unit": "mg/kg/day"},
      {"measurement": "LEL", "setting": "rat [4]; [13]", "result": 81.5, "unit": "mg/kg/day"},
      {"measurement": "LOAEL", "setting": "rat [4]; [13]", "result": 81.5, "unit": "mg/kg/day"},
      {"measurement": "NEL", "setting": "rat [4]; [13]", "result": 7.89, "unit": "mg/kg/day"},
      {"measurement": "NOAEL", "setting": "rat [4]; [13]", "result": 7.89, "unit": "mg/kg/day"},
      {"measurement": "LEL", "setting": "rat [4]; [14]", "result": 81.5, "unit": "mg/kg/day"},
      {"measurement": "LOAEL", "setting": "rat [4]; [14]", "result": "> 81.5", "unit": "mg/kg/day"},
      {"measurement": "NEL", "setting": "rat [4]; [14]", "result": 7.89, "unit": "mg/kg/day"},
      {"measurement": "NOAEL", "setting": "rat [4]; [14]", "result": "≥ 81.5", "unit": "mg/kg/day"},
      {"measurement": "LOAEL", "setting": "mouse; systemic / organ weight / liver / absolute", "result": 17.4, "unit": "mg/kg/day"},
      {"measurement": "NEL", "setting": "mouse; [15]", "result": 1.82, "unit": "mg/kg/day"},
      {"measurement": "NOAEL", "setting": "mouse; [15]", "result": 1.82, "unit": "mg/kg/day"},
      {"measurement": "LEL", "setting": "mouse; systemic / organ weight / liver / absolute + systemic / organ weight / liver / relative to body weight", "result": 17.4, "unit": "mg/kg/day"}
    ]}
  ]
}
